Assay results published in PubChem BioAssay (NCI).
“And” between values parts separate entries of the source, which are not always exact repeats. Equal values may be shown once.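 Where inhibition never reached the appropriate level, the endpoint shown equals the highest concentration tested. Otherwise, values were interpolated linearly from a five-concentration, 48-hour dose response in 96-well plates. GI50 marks 50% less growth. At the TGI there is no net growth.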

Experiments:
Experiment in all cases: NCI anticancer screen, dose series, 48 h
OVCAR-8 ovarian = test system: OVCAR-8 ovarian
786-0 renal = test system: 786-0 renal
SNB-19 CNS = test system: SNB-19 CNS
A549 NSCLC = test system: A549 NSCLC
UACC-257 melanoma = test system: UACC-257 melanoma
SF-295 CNS = test system: SF-295 CNS
HOP-62 NSCLC = test system: HOP-62 NSCLC
UACC-62 melanoma = test system: UACC-62 melanoma
SNB-75 CNS = test system: SNB-75 CNS
CAKI-1 renal = test system: CAKI-1 renal

SMILES | TGI (OVCAR-8 ovarian) | TGI (786-0 renal) | TGI (SNB-19 CNS) [µM] | TGI (A549 NSCLC) | TGI (UACC-257 melanoma) | TGI (SF-295 CNS) | TGI (HOP-62 NSCLC) | TGI (UACC-62 melanoma) [µM] | TGI (SNB-75 CNS) | TGI (CAKI-1 renal) | GI50 (OVCAR-8 ovarian) | GI50 (786-0 renal) | GI50 (SNB-19 CNS) [µM] | GI50 (SNB-75 CNS) | GI50 (A549 NSCLC) | GI50 (UACC-257 melanoma) [µM] | GI50 (SF-295 CNS) | GI50 (HOP-62 NSCLC) | GI50 (CAKI-1 renal) [µM] | GI50 (UACC-62 melanoma) [µM]
COC1CC2CCC(C)[C@](O)(O2)C(=O)C(=O)N2CCCCC2C(=O)OC(C(C)CC2CCC(O)C(OC)C2)CC(=O)C(C)C=C(C)C(OC(=O)CN(C)C)C(OC)C(=O)C(C)CC(C)/C=C/C=C/C=C\1C (stereo partly drawn) | 62.5 µM | 24.7 µM | 15.9 | 26.9 µM | 24.1 µM | 20.7 µM | 19.3 µM | 20.2 |  |  |  |  |  |  |  |  |  |  |  | 
COC(=O)C1C(=O)O[C@@H](c2ccc(OC)cc2OC)C1C(=O)OC (stereo partly drawn) | > 100 µM | > 100 µM | > 100 | > 100 µM | > 100 µM | > 100 µM | > 100 µM | > 100 | > 100 µM | > 100 µM |  |  |  |  |  |  |  |  |  | 
O=C1/C(=C/c2ccc(Cl)cc2)CN(C(=O)C(Cl)Cl)C/C1=C\c1ccc(Cl)cc1 | 1.44 µM | 0.371 µM | 0.576 | 1.05 µM | 1.55 µM | 0.683 µM | 0.94 µM | 0.426 | 0.509 µM | 0.865 µM | 0.22 µM | 0.183 µM | 0.177 | 0.161 µM | 0.275 µM | 0.465 | 0.214 µM | 0.288 µM | 0.264 | 0.19
O=C(CC(=O)C(F)(F)F)c1csc2ccccc12 | 60.2 µM | > 100 µM | > 100 | > 100 µM | > 100 µM | 37 µM | 81.1 µM | > 100 |  |  |  |  |  |  |  |  |  |  |  | 
COC(=O)[C@@H](C)C[C@H](Cc1ccccc1)NC(=O)c1csc([C@@H](C[C@H](C(C)C)N(C)C(=O)[C@@H](NC(=O)[C@H]2CCCCN2C)C(C)C)OC(C)=O)n1 | > 25 µM | 24.5 µM | > 25 | > 25 µM |  | 13.1 µM | > 25 µM | > 25 | > 25 µM |  | 0.000519 µM and 0.0025 µM | 0.000331 µM and 0.0025 µM |  |  | 0.000457 µM and 0.0025 µM |  |  | 0.000396 µM and 0.0025 µM |  | 
Cc1ccc(NC(=O)c2ccnc(N3CCCC3)c2)cc1-c1ccc(C(=O)NCC2CC2)cc1 | > 25 µM | > 25 µM | > 25 | > 25 µM | > 25 µM | > 25 µM | > 25 µM | > 25 | > 25 µM | > 25 µM | > 25 µM | > 25 µM | > 25 | > 21.7 µM | > 25 µM | > 25 | > 25 µM | > 25 µM | > 25 | > 25
O=C1/C(=C/C(Cl)=C/c2ccccc2)SC(=S)N1CCc1ccc(O)cc1 | 16.3 µM | 4.92 µM | 2.95 | > 100 µM | 3.61 µM | 15.9 µM | 12.2 µM | 3.04 | 5.62 µM | 3.78 µM | 0.596 µM | 2.19 µM | 1.51 | 1.31 µM | 2.85 µM | 1.39 | 3.57 µM | 3.15 µM | 1.52 | 1.33
CC(C)(O)[C@H]1[C@@H]2OC(=O)[C@H]1[C@]1(O)C[C@H]3OC34C(=O)O[C@H]2[C@@]41C (stereo partly drawn) (tested in a mixture with another compound) | > 100 µM | > 100 µM | > 100 | > 100 µM | > 100 µM | > 100 µM | > 100 µM | > 100 | > 100 µM | > 100 µM |  |  |  |  |  |  |  |  |  | 
CNC1C(O)CC(OC2C/C=C(\C)C/C(C)=C/C=C/CCC(C)CNC(=O)/C=C/C=C/C2C)OC1C (stereo not drawn) | 1.18 µM | 0.294 µM | 8.31 |  | 1.65 µM | 0.682 µM |  | 0.855 | 2.91 µM | 1.6 µM |  |  |  |  |  |  |  |  |  | 
ON(CCc1ccccn1)Cc1ccccc1 | > 100 µM | > 100 µM | > 100 | > 100 µM | > 100 µM | > 100 µM | > 100 µM | > 100 | > 100 µM | > 100 µM |  |  |  |  |  |  |  |  |  | 
Cc1cc(C)n(-c2c(O)ccc(O)c2-n2nc(C)cc2C)n1 | > 100 µM | > 100 µM | > 100 | > 100 µM |  | > 100 µM | > 100 µM | > 100 | > 100 µM | > 100 µM |  |  |  |  |  |  |  |  |  | 
O=C1C=CC2(C=C1)CCN=c1c(O)c3c(c(O)c12)=NC=N3 | 37.3 µM and > 100 µM | 32.1 µM and > 100 µM | 27.1 | 39.2 µM and > 100 µM | 21.6 µM and > 100 µM | 34.4 µM and > 100 µM | 30.3 µM and > 100 µM |  | 35.2 µM and > 100 µM | 27.5 µM and > 100 µM | 14 µM and > 100 µM | 17.6 µM and > 100 µM |  | 17.8 µM and > 100 µM | 17.9 µM and > 100 µM |  | 20 µM and > 100 µM | 16.3 µM and > 100 µM |  | 
CC1OC(O)CC(OC(=O)c2ccccc2)C1OC(=O)c1ccccc1 (stereo not drawn) | 31.6 µM | 82.7 µM | > 100 | > 100 µM | 29.4 µM | > 100 µM | > 100 µM | 31.5 |  | 63.1 µM |  |  |  |  |  |  |  |  |  | 
CCC(=C(c1ccc(OCc2ccccc2)cc1)c1ccc(OCc2ccccc2)cc1)c1ccc(OC)cc1 | > 100 µM | > 100 µM | > 100 | > 100 µM |  | > 100 µM | > 100 µM | > 100 | > 100 µM | > 100 µM |  |  |  |  |  |  |  |  |  | 
Clc1ccc(CO/N=C(\Cn2ccnc2)c2ccc(Cl)cc2Cl)c(Cl)c1 |  | 3.14 µM |  | 3.32 µM | 3.18 µM |  | 2.9 µM | 2.67 | 3.22 µM | 3.39 µM |  | 1.66 µM |  | 1.65 µM | 1.55 µM | 1.68 |  | 1.56 µM | 1.38 | 1.24
COC(=O)C1=CC2OC1(C)C1(CC1)C2=O (stereo not drawn) | 31.3 µM | 31.8 µM | > 100 | 70 µM | 31 µM | 34.4 µM | > 100 µM |  | 50 µM | 33.5 µM |  |  |  |  |  |  |  |  |  | 
CC(=O)Nc1ccc(/C=C/C(=O)c2sc(C(N)=S)nc2C)cc1 | > 100 µM | > 100 µM |  | > 100 µM | > 100 µM | > 100 µM | > 100 µM | > 100 | > 100 µM | > 100 µM |  |  |  |  |  |  |  |  |  | 
COc1ccc(-c2nc(-c3nc4cc(C)c(C)cc4[nH]3)cc3c2[nH]c2ccccc23)cc1 | > 100 µM | 5.93 µM | > 100 | > 100 µM | 14.4 µM |  | > 100 µM | 6.7 | 35 µM | 44.5 µM | 3.46 µM | 2.6 µM | 68.9 | 3.44 µM | 3.94 µM | 3.47 |  | 7.63 µM | 2.44 | 2.25
